A melting point compilation (Tetko et al.; mined from patent text by program, amines drawn as free bases though some values may be those of a salt)

Compound | melting point [°C]
CCOc1ccc2c3c([nH]c2c1)CC(NC(C)=O)CC3 (stereo not given) | 184 to 186
C#CCn1ccc2ccccc2c1=O | 104 to 105
CCCCCCCCCNC(=O)OCCCNC(=O)OC1CCN(C(=O)Oc2ccc(Oc3ccccc3)cc2)CC1 | 89 to 91
CN(C)CCOc1ccc(N(C(=O)c2ccc(F)cc2)c2ccccc2)cc1 | 88.5 to 90
CCC12CC(Cl)C3C4CCC(=O)C=C4CCC3C1C(O)CC2=O (stereo not given) | 169 to 170
Cc1c(O)c(=O)ccn1CCCCCO | 136 to 138
O=C1CCCC(c2ccccc2)N1c1ccc(F)cc1 (stereo not given) | 87.5 to 88.5
CCOC(=O)C=Cc1ccc(CCNS(=O)(=O)CCc2ccc(Cl)cc2)cc1 | 91 to 92
Cc1cc(CO)nc(N2CCN(c3ccnc([C@@H](C)O)n3)CC2)n1 | 139 to 140
O=C(N[C@H](Cc1ccc(F)cc1)[C@@H](O)c1ccc(C(F)(F)F)cc1)c1ccc(F)c2ccccc12 (racemic) | 235 to 236
COC(=O)CN(CC(=O)OC)[C@H]1CC[C@H](Nc2ncc3ncnc(Nc4ccc(F)c(Cl)c4)c3n2)CC1 | 181 to 184
N#Cc1cc(C(=O)O)ccc1F | 177 to 178
CN(C)C(=O)Nc1nsnc1-c1c(Cl)cccc1Cl | 100 to 103
O=C(CBr)c1csc(C(F)(F)F)n1 | 36 to 37
O=C(N[C@@H]1CCCC[C@H]1O)c1cnc(OCC(F)(F)F)c(-c2ccc(F)cc2)n1 | 133 to 134
COc1ccc(C(SC)c2ccc(OC)cc2)cc1 | 62 to 63
CCOC(=O)C(C#N)=NOC(=O)OCC(C)C | 60 to 62
O=C(CC(=O)C(F)F)c1ccc(Br)s1 | 83.5 to 85
C[C@@H](O)c1nccc(N2CCC(=Cc3cccc(Cl)c3)CC2)n1 | 45 to 55
O=C(Nc1nnn(C(F)F)n1)C1c2ccccc2Oc2ccccc21 | 168 to 169
COc1cccc2c1[nH]c(=O)n2C(=O)Oc1ccccc1 | 204 to 205
CC(=O)OCc1cn2c(n1)CN=C(c1ccccc1F)c1cc(Cl)ccc1-2 | 134 to 136
CN(c1cccc2cc(C(=O)NCC(C)(C=O)SCc3ccccc3)[nH]c12)S(=O)(=O)c1cccs1 (stereo not given) | 149 to 150
CC(Cc1cc(-c2ccccc2)nc2ccccc12)C(=O)O (stereo not given) | 185
COc1ccccc1N1CCN([C@@H]2Cc3c(O)cccc3C[C@H]2O)CC1 (relative stereo) | 218 to 220
COc1ccc(NC(=O)c2coc(-c3ccncc3)c2)cc1N1CCN(C)CC1 | 103 to 105
COc1cc(OCc2ccccn2)c(C=CC(=O)c2ccc(S(N)(=O)=O)cc2)cc1-c1cccs1 | 188 to 189

Further lines, results first:

melting point [°C] | Compound
183 to 184 | FC(F)(F)c1nnc2ccc(-c3ccccc3)nn12
79 to 80 | Fc1ccc2scc(Br)c2c1
187 to 191 | CC1=CC(c2cccc(Br)c2)C2=C(CCCC2=O)N1 (stereo not given)
74 to 76 | ClCc1ccc(OCc2ccccc2)cc1
115 | O=C1c2ccccc2C(=O)N1Cc1nc(C2CC2)no1
143 to 155 | CC(C)(C)[Si](C)(C)OC[C@H]1OC[C@@H](n2cnc3cc(Cl)c(Cl)cc32)C[C@@H]1O
105 to 107 | CCN1CC(=O)N(C)c2cc(Nc3ncc(Cl)c(Nc4ccc(OC)cc4-n4cccn4)n3)c(OC)cc2C1
175 to 178 | CCOC(=O)C(CO)NC(=O)C(N)(CC(=O)O)NC(=O)C(C)C (stereo not given)
198 to 200 | CS(=O)(=O)Nc1ccc(C(=O)c2ccc(Cl)cc2)cc1
165 to 170 | CC(=O)OCC1OC(OC2C(COC(C)=O)OC(Oc3ccc([N+](=O)[O-])cc3)C(OC(C)=O)C2OC(C)=O)C(OC(C)=O)C(OC(C)=O)C1OC(C)=O (stereo not given)
55 to 56 | CC1(C)C=C(C#Cc2ccccn2)CC(C)(C)C1
180 | CC(C)(C#N)c1c(Cl)cc(-n2ncc(=O)[nH]c2=O)cc1Cl
144 to 145 | CC1=C(C(=O)OC(C)(C)C)C(c2cccc(Cl)c2Cl)C(C(=O)OC(C)(C)C)=C(C)N1
